Patent publication US20120202814A1, “COMPOUNDS WITH DDX3 INHIBITORY ACTIVITY AND USES THEREOF” (UNIVERSITÀ DEGLI STUDI DI SIENA, priority 2009, published 2012)
Read-outs that look alike come from different tables or passages of the source.

Columns and labels:
HIV-1 = assay: Antiviral assay, HIV-1 replication in infected PBMCs (viral RNA in supernatant); format: cell-based; conditions: Human immunodeficiency virus 1, PBMC, 72 h, read-out: EC50, anti-HIV activity
Method: FIG. 1. A) Antiviral activity (expressed as % of viral load with respect to the control) of compounds FE56 and FE66 at 0.3 μM and 3 μM doses against single round HIV-1 replication in HeLaCD4+ cells infected with a wild type HIV-1 strain. Measurements were performed at 72 h post infection. B) Antiviral activity of compounds FE15 and FE66 on HIV-1 replication in phytohemagglutinin-stimulated peripheral blood mononuclear cells (PBMCs) […] with HeLa CD4^+-cell culture supernatants containing wild type HIV. Compounds were tested at 50 μM (FE15) and 5 μM (FE66). The HIV-1 RNA was quantified in the cell culture supernatant after 3, and 5 days of incubation. Results are expressed as HIV RNA copies/ml. Control (white bars).
FIG. 2. Antiviral activity of DDX3 inhibitors. A) Comparison of the antiviral activity (expressed as % of viral RNA with respect to the control) on infected PBMCs of a fixed dose of selected inhibitors. Measurements were performed at 72 h post infection. Values are the means of three independent replicates. Error bars are ±SD. White bars: control without drugs; dark grey bar: positive control with AZT (0.01 μM); black bar: first generation inhibitor FE15 (50 μM); light grey bars: second generation DDX3 inhibitors FE66, 11d and 38 (3 μM). B) Dose-response curves for the inhibiton of HIV-1 replication (expressed as % of viral RNA with respect to the control) in infected PBMCs by FE15 (circles) and 38 (triangles). Measurements were performed at 72 h post infection. Values are the means of three independent replicates. Error bars are ±SD.
In detail, 0.5 μg of each HIV-1 plasmid construct was transfected into CD4 HeLa cells by using the lipofectin reagent, according to the recommendations of the manufacturer (Invitrogen, Groningen, The Netherlands). After 3 days of incubation at 37° C., the cell supernatants, which contained reconstituted viable recombinant viruses, were collected. Quantification of the newly produced recombinant strains was obtained by determination of the HIV RNA copy number in the cell culture supernatants. Successively, 10 ml of transfected HeLa CD4^+-cell culture supernatants containing wild-type, and mutated recombinant HIV strain […], was used to infect aliquots of 10×10^6 phytohemagglutinin-stimulated peripheral blood mononuclear cells (PBMCs) from HIV-seronegative blood donors. After 4 h of incubation, supernatants were removed and infected PBMCs were incubated at 37° C. in 10 ml of RPMI 1640 medium (Eurobio, Les Ulis Cedex B, France) supplemented with 20% fetal calf serum (Life Technologies, Ltd., Paisley, Scotland), 2 mM l-glutamine, 100 U of penicillin per ml, 100 μg of streptomycin per ml, 10% interleukin-2 (ZeptoMetrix Co., Buffalo, N.Y.), 5 μg of hydrocortisone (Sigma Chemical Co.) per ml and with fourfold dilutions of antiretroviral drugs. No-drug controls for each drug dilution were included in each assay. After 3, 5 and 7 days of incubation the HIV-1 RNA in the cell culture supernatant was quantified. Recombinant HIV-1 strains from treatment-naive patients and multidrug resistance-associated changes were assayed in parallel. The degree of inhibition of viral replication was measured by determining the HIV-1 RNA level in the supernatants of cell cultures and was expressed as the fold increase in the 50% inhibitory concentrations (IC50s) for resistant recombinant HIV-1 variants compared with the IC50s for the wild-type recombinant variant. Each test was performed in triplicate.

[1] = molecular target: T1, human DDX3 (ATPase activity) (Homo sapiens, UniProt O00571); assay: Human DDX3 ATPase activity assay (luciferase-based luminescence); format: biochemical; conditions: for Ki: DDX3 ATPase activity, read-out: Ki (μM), apparent equilibrium dissociation constant for the inhibitor to the target enzyme DDX3; for IC50: ATPase activity, read-out: ATPase ID50
T1 construct: made in house; host or cells: E. coli
Method: ATPase activity was tested with a luciferase-based luminescence assay (Easylite-Kinase, Perkin Elmer) on 96 wells microtiter plates. Briefly, recombinant purified human DDX3 (50-100 ng) was incubated in a 15 μL total reaction volume with reaction buffer (25 mM TrisHCl pH 7.5, 5 mM MgCl2), in the presence of increasing amounts of ATP and/or different combinations of ATP and the inhibitor to be tested. Reference curves in the absence of inhibitor (giving the 100% of enzymatic activity) and in the absence of enzyme (giving the baseline), were also included in each experiment. Reading was performed with a Microbeta Trilux (Perkin Elmer) luminometer, according to the manufacturer's protocol.
ATPase reactions were performed as described, in the presence of increasing amounts of inhibitor and variable ATP concentrations. Variations of the initial velocities of the reaction as a function of ATP concentrations in the absence or presence of 4 were analyzed with the equation: […]
Variation of the % inhibition as a function of compound FE15 at different ATP concentrations were fitted to the equation for cooperative binding: […]
where Vmax is the apparent maximal rate of the reaction in the absence of the inhibitor, [I] is the variable inhibitor concentration, n is the cooperativity index and Ki(app) is the apparent inhibition constant. Comparatively, fitting was done with the same Eq. (2) where n was kept fixed at the value of 1 (non-cooperativity hypothesis). F test was used to compare the two fittings and p value was calculated.
(§1) Human recombinant DDX3 was cloned, expressed and purified as described (Franca et al. Proteins 2007, 67, 1128-37).
The anti-DDX3 activity of the compounds of the invention was evaluated by in vitro ATPase activity assay using the recombinant human DDX3 protein produced in E. coli. The potency of inhibition (Ki) for each molecule was calculated, representing the concentration of the inhibitor able to reduce the DDX3 ATPase activity by 50%

[2] = tested on: cervical cancer HeLa cell line; assay: Antiproliferative activity against HeLa cells (CellTiter viability assay); format: cell-based; conditions: Homo sapiens
Method: Selected compounds from Table 1 were tested against the cervical cancer HeLa cell line for antiproliferative activity. Cell viability was measured with the CellTiter viability assay (Table 2). Table 3 lists the calculated antiproliferative potencies (EC50, dose required to suppress 50% of cell viability) for a series of representative compounds of the invention.

[3] = molecular target: T2, human DDX3 (helicase activity) (Homo sapiens, UniProt O00571); assay: Human DDX3 helicase activity assay (ds to ss nucleic acid unwinding); format: biochemical; conditions: for fold higher potency against the helicase with respect to the ATPase activity: helicase versus ATPase ID50; for fold improvement in anti-helicase activity with respect to EI01: ratio of helicase ID50; for IC50: anti-helicase activity, na = not active, read-out: Helicase ID50
T2 construct: made in house
Method: The helicase activity of DDX3 wt and mutant forms was monitored by measuring the conversion of a double stranded (ds) DNA or RNA (labelled at the 5′-end of one strand with a 6-FAM fluorescent group or P^32, respectively) into single stranded (ss) nucleic acid. Reactions were performed in 50 mM TrisHCl pH 7.5, 1 mM DTT, 0.2 mg/ml BSA, 5% glycerol and 100 μM ATP, 10 mM MgCl2 at 37° C. degrees for 10′ and stopped by adding EDTA 50 mM pH 8. Products were separated through non-denaturating 8% PAGE at 5 W for 2 hours in TBE buffer at 4° C. Substrates and products were quantified by laser scanning densitometry (Thyphoon-TRIO, GE Healthcare).
as §1
Compounds were obtained by application of a virtual docking protocol on the RNA-binding site identified in the homology model developed in the present invention. These compounds were commercially available (EI-compounds in Table 4). A few other compounds (25-31, EXAMPLE 6) were rationally designed to target the above mentioned RNA-binding site and then synthesized. All the compounds were tested for anti-helicase activity.

[4] = 48 hours, read-out: EC50 (μM) 48 hours, dose required to suppress 50% of cell viability
[5] = 72 hours, read-out: EC50 (μM) 72 hours, dose required to suppress 50% of cell viability

T1 sequence (O00571 whole entry): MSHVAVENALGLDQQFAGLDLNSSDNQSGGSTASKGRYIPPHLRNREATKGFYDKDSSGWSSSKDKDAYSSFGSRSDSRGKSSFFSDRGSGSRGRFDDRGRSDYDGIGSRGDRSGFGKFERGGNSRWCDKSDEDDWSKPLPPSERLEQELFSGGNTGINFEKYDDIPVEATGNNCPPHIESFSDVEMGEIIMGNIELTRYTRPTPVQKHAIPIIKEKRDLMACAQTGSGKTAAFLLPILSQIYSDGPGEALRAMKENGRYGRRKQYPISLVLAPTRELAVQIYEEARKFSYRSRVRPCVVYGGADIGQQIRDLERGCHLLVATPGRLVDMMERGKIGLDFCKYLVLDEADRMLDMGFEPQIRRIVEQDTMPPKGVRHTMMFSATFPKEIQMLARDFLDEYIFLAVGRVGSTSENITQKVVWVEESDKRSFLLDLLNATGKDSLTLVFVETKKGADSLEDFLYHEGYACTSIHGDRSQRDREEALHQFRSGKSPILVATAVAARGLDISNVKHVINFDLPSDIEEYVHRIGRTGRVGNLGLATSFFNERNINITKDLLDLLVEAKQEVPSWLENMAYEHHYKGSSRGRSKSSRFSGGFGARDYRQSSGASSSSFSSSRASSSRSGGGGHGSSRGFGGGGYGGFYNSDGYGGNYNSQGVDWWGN
T2 sequence (O00571 whole entry): as above

SMILES	Ki [1] [µM]	EC50 [2, 4] [µM]	EC50 [2, 5] [µM]	IC50 [3] [µM]	other results
Oc1ccccc1/C=N/Nc1nc(Nc2ccc(F)cc2)nc(N2CCOCC2)n1 [Compound 11d, (E)-2-((2-(4-(4-Fluorophenylamino)-6-morpholino-1,3,5-triazin-2-yl)hydrazono)methyl)phenol]	0.4				EC50 (HIV-1): 2.5 µM; melting point: 234 °C
CCN(CC)c1nc(NCc2ccccc2)nc(N/N=C2/C(=O)Nc3ccccc32)n1 [Compound 14g, (E)-3-(2-(4-(benzylamino)-6-(diethylamino)-1,3,5-triazin-2-yl)hydrazono)indolin-2-one]	0.1	10	10		
CCN(CC)c1nc(NCc2ccccc2)nc(N/N=C/c2ccccc2O)n1 [Compound 15k, (E)-2-((2-(4-(benzylamino)-6-(diethylamino)-1,3,5-triazin-2-yl)hydrazono)methyl)phenol]	0.5	3	1		
Cc1ccccc1NC(=O)Nc1cccc([N+](=O)[O-])c1 [Compound 25, 1-(3-nitrophenyl)-3-o-tolylurea]					IC50 [1]: 11 µM; fold higher potency against the helicase with respect to the ATPase activity [3]: 11 fold; fold improvement in anti-helicase activity with respect to EI01 [3]: 245 fold
Cc1ccccc1NC(=O)Nc1cccc(N)c1 [Compound 26, 1-(3-aminophenyl)-3-o-tolylurea]				5.7	fold improvement in anti-helicase activity with respect to EI01 [3]: 43 fold
O=C(Nc1cccc([N+](=O)[O-])c1)Nc1cccc([N+](=O)[O-])c1 [Compound 29, 1,3-bis(3-nitrophenyl)urea]				52	
Nc1cccc(NC(=O)Nc2cccc(N)c2)c1 [Compound 30, 1,3-bis(3-aminophenyl)urea]				24	
Cc1ccccc1NC(=O)Nc1cccc(NC(=O)Nc2cccc(NC(=O)Nc3ccccc3C)c2)c1 [Compound 31, 1,3-bis(3-{[(2-methylphenyl)carbamoyl]amino}phenyl)urea]				1300	
O=C(CCN1C(=O)/C(=C/c2ccc3c(c2)OCO3)SC1=S)Nc1ccccc1O [Compound 35f, 3-((Z)-5-((Benzo[d][1,3]dioxol-5-yl)methylene)-4-oxo-2-thioxothiazolidin-3-yl)-N-(2-hydroxyphenyl)propanamide]	1				melting point: 240 to 241 °C
O=C(CCN1C(=O)/C(=C/c2cccc(Br)c2)SC1=S)Nc1ccccc1[N+](=O)[O-] [Compound 35g, 3-((Z)-5-(3-Bromobenzylidene)-4-oxo-2-thioxothiazolidin-3-yl)-N-(2-nitrophenyl)propanamide]	8.7				melting point: 204 to 206 °C
O=C(CCN1C(=O)/C(=C/c2cccc(F)c2)SC1=S)Nc1ccccc1[N+](=O)[O-] [Compound 35h, 3-((Z)-5-(3-Fluorobenzylidene)-4-oxo-2-thioxothiazolidin-3-yl)-N-(2-nitrophenyl)propanamide]	7.6				melting point: 207 to 208 °C
Cc1ccc(NC(=O)c2cccc(NC(=O)Nc3cccc(C)c3C)c2)cc1C [EI-01A]				131	
O=C(Nc1cccc(C(=O)Nc2ccccc2Cl)c1)Nc1ccccc1Cl [EI-01B]				1300	
Cc1ccccc1NC(=O)Nc1cccc(NC(=O)Nc2ccccc2C)c1 [EI-01]				250	IC50 [1]: 245 µM; fold higher potency against the helicase with respect to the ATPase activity [3]: did not discriminate between ATPase and helicase activities
COc1ccc(Nc2nc(NCc3ccco3)nc(N/N=C/c3cc([N+](=O)[O-])ccc3O)n2)cc1 [FE-56A]	31.7	8	4		
CC(=O)Nc1ccc(/C(C)=N/Nc2nc(Nc3ccccc3)nc(Nc3ccccc3)n2)cc1 [FE-56F]	0.3	10	5		
Cc1[nH]c2ccccc2c1/C=N/Nc1nc(Nc2ccc(F)cc2)nc(N2CCOCC2)n1 [FE-56M]	0.2	10	5		
Clc1ccc(-c2ccc(/C=N/Nc3nc(Nc4ccccc4)nc(N4CCCCC4)n3)o2)cc1 [FE-56N]	0.4	25	4		
